Where only a bound is given, the exact number is not on record here.

The values that follow come from ChEMBL document CHEMBL1144597, “Synthesis and evaluation of aryl thioxothiazolidinone inhibitors of ADAMTS-5 (Aggrecanase-2)” (Bioorg Med Chem Lett, 2007).

For the assay, the target named is T1, A disintegrin and metalloproteinase with thrombospondin motifs 5 (Homo sapiens, UniProt Q9UNA0).
T1 sequence (Q9UNA0 whole entry): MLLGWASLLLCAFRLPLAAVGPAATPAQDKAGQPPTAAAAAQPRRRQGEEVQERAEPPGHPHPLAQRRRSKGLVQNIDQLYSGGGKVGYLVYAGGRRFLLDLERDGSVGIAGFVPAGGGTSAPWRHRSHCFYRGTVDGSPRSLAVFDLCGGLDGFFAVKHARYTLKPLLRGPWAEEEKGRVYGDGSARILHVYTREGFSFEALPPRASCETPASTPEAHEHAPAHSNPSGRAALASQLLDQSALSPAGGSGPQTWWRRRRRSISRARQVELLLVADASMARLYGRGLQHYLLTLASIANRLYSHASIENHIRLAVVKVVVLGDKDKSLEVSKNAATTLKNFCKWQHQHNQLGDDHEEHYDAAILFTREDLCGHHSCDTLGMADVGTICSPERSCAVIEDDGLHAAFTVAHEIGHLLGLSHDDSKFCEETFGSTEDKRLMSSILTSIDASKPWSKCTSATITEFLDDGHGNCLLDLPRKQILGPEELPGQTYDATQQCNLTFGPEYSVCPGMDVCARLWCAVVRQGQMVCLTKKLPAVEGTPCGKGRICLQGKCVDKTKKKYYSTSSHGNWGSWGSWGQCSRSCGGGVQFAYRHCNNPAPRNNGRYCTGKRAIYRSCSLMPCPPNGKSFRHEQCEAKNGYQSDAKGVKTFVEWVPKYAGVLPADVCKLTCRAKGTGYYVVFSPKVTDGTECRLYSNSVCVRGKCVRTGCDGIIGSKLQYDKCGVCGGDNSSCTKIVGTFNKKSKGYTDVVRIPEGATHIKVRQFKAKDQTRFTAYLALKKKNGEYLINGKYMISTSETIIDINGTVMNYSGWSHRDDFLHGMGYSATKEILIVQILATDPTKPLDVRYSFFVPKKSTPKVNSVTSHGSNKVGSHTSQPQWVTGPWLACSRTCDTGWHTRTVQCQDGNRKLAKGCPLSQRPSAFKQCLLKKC
The experiment in a line: Inhibition of ADAMTS5.

Compound `COc1ccc(Oc2cccc(/C=C3/SC(=S)NC3=O)c2)cc1` showed an IC50 of 16.2 µM.

In turn, `O=C1NC(=S)S/C1=C/c1cccc(Oc2cc(Cl)cc(Cl)c2)c1` came in with an IC50 of 2.5 µM.

Compound `O=C(O)[C@@H](Cc1ccccc1)N1C(=O)/C(=C\c2cccc(Oc3ccc(Cl)c(Cl)c3)c2)SC1=S` yielded an IC50 of 1.6 µM.

`O=C1/C(=C\c2ccc(OCc3ccccc3)c(OCc3ccccc3)c2)SC(=S)N1CCc1ccccc1` had an IC50 greater than 67 µM.

As for `O=C1NC(=O)/C(=C\c2cccc(Oc3cc(Cl)cc(Cl)c3)c2)S1`, inhibition was half-maximal at 9.2 µM (IC50).

For the compound `CCN1C(=O)/C(=C\c2ccc(OCc3ccccc3)c(OCc3ccccc3)c2)SC1=S`, the IC50 was greater than 67 µM.

`O=C(O)CN1C(=O)/C(=C\c2cccc(Oc3ccc(Cl)c(Cl)c3)c2)SC1=S` showed an IC50 of 11.1 µM.

In turn, `CN1C(=O)NC(=O)/C1=C\c1cccc(Oc2ccc(Cl)cc2)c1` showed an IC50 greater than 22 µM.

For `CN1C(=O)/C(=C\c2ccc(OCc3ccccc3)c(OCc3ccccc3)c2)SC1=S`, the concentration for half-maximal inhibition (IC50) was greater than 67 µM.

Regarding `COc1ccc(COc2ccc(/C=C3/SC(=S)NC3=O)cc2OC)cc1`, inhibition was half-maximal at 11.6 µM (IC50).

In turn, `O=C1NC(=S)S/C1=C/c1cccc(Oc2ccccc2)c1` showed an IC50 greater than 22 µM.

Take `O=C1/C(=C\c2ccc(OCc3ccccc3)c(OCc3ccccc3)c2)SC(=S)N1c1ccccc1`: the IC50 is greater than 67 µM.

In the case of `COc1cc(/C=C2/SC(=S)NC2=O)ccc1OCc1ccc(Cl)cc1`, the IC50 was 3.5 µM.

Regarding `CC(C)(C)c1ccc(Oc2cccc(/C=C3/SC(=S)NC3=O)c2)cc1`, the IC50 worked out at 1.7 µM.

As for `O=C1NC(=S)S/C1=C/c1cc(OCc2ccccc2)cc(OCc2ccccc2)c1`, 1.4 µM corresponded to half-maximal inhibition (IC50).

`O=C(O)C(c1ccccc1)N1C(=O)/C(=C\c2cccc(Oc3ccc(Cl)c(Cl)c3)c2)SC1=S` (stereo unspecified) returned an IC50 of 1.3 µM.

The compound `O=C(O)[C@@H](Cc1ccccc1)N1C(=O)/C(=C\c2ccc(OCc3ccccc3)c(OCc3ccccc3)c2)SC1=S` yielded an IC50 of 1.3 µM.

`CC(C)[C@H](C(=O)O)N1C(=O)/C(=C\c2cccc(Oc3ccc(Cl)c(Cl)c3)c2)SC1=S` registered an IC50 of 1.8 µM.

On to `O=C1NC(=S)S/C1=C/c1cccc(Oc2ccc(C(F)(F)F)cc2)c1`, for which the IC50 is 5.3 µM.

`O=C(O)C(c1ccccc1)N1C(=O)/C(=C\c2ccc(OCc3ccccc3)c(OCc3ccccc3)c2)SC1=S` (stereo unspecified) yielded an IC50 of 0.9 µM.

`O=C1NC(=O)/C(=C\c2cccc(Oc3ccc(Cl)cc3)c2)S1` yielded an IC50 greater than 22 µM.

As to `O=C1NC(=S)S/C1=C/c1cccc(Oc2ccc(Cl)cc2)c1`, the IC50 is 4.9 µM.

Regarding `O=C(O)CN1C(=O)/C(=C\c2ccc(OCc3ccccc3)c(OCc3ccccc3)c2)SC1=S`, the IC50 came out at 6.7 µM.

`O=C1NC(=O)/C(=C\c2cccc(Oc3ccc(Cl)cc3)c2)N1` gave an IC50 greater than 67 µM.

On to `Cc1ccc(Oc2cccc(/C=C3/SC(=S)NC3=O)c2)cc1`, for which it took 14.8 µM to reach half-maximal inhibition (IC50).

In the case of `O=C1/C(=C\c2ccc(OCc3ccccc3)c(OCc3ccccc3)c2)SC(=S)N1Cc1ccccc1`, the IC50 was greater than 67 µM.

The compound `O=C1NC(=S)S/C1=C/c1ccc(OCc2ccccc2)c(OCc2ccccc2)c1` registered an IC50 of 1.8 µM.

Compound `CC(C)(C)c1ccc(Oc2cccc(/C=C3/SC(=O)NC3=O)c2)cc1` displayed an IC50 of 6.8 µM.

In turn, `O=C(O)CCN1C(=O)/C(=C\c2ccc(OCc3ccccc3)c(OCc3ccccc3)c2)SC1=S` had an IC50 of 5.3 µM.

`CC(C)(C)c1ccc(Oc2cccc(/C=C3/NC(=O)NC3=O)c2)cc1` gave an IC50 greater than 67 µM.

`O=C1NC(=O)/C(=C\c2cccc(Oc3cc(Cl)cc(Cl)c3)c2)N1` showed an IC50 greater than 67 µM.

`O=C1NC(=S)S/C1=C/c1cccc(Oc2ccc(Cl)c(Cl)c2)c1` gave an IC50 of 3.2 µM.

The compound `COc1cc(/C=C2/SC(=S)NC2=O)ccc1OCc1ccccc1` returned an IC50 greater than 22 µM.

`CC(C)[C@H](C(=O)O)N1C(=O)/C(=C\c2ccc(OCc3ccccc3)c(OCc3ccccc3)c2)SC1=S` yielded an IC50 of 1.1 µM.

As for `O=C1NC(=S)S/C1=C/c1cccc(OCc2ccccc2)c1`, the IC50 came to 20.1 µM.

As to `O=C1NC(=O)/C(=C\c2cccc(Oc3ccc(Cl)c(Cl)c3)c2)S1`, the IC50 was 10 µM.
